This note sets out measurements from patent US10590143B2, “Herbicidally active (alkynyl-phenyl)-substituted cyclic dione compounds and derivatives thereof” (Syngenta Limited, priority 2013, dated 2020).

Like-named read-outs stand apart in the source and are kept apart here.

Experiment in all cases: Biological Example 1 glasshouse assay for herbicidal activity
Holding throughout (type): in vivo

In assay [1] the test system is Echinochloa crus-galli (ECHCG). Conditions: Echinochloa crus-galli, 312 h, 13 days after application, read-out: percentage phytotoxicity ECHCG. How it is done:
(§1) Seeds of a variety of test plant species were sown in standard soil** in pots. After cultivation for one day (pre-emergence) or after 8 days cultivation (post-emergence) under controlled conditions in a glasshouse (at 24/16° C., day/night; 14 hours light; 65% humidity), the plants were sprayed with an aqueous spray solution derived from the formulation of the technical active ingredient (the test herbicide) in acetone/water (50:50) solution containing 0.5% Tween 20 (polyoxyethylene sorbitan monolaurate, CAS Reg. No. 9005-64-5). The test plants were then grown on under controlled conditions in a glasshouse (at 24/16° C., day/night; 14 hours light; 65% humidity) and watered twice daily. 13 Days after application of the test herbicide, for pre- and post-emergence, the test was evaluated visually for percentage phytotoxicity to each plant (where 100%=total damage to plant; 0%=no damage to plant). Generally, each test herbicide is only tested on 1 plant per plant species for each application rate tested and for each application timing. **The “standard soil” in Biological Example 1 is usually a “sand” or “sandy loam” type of soil.
(§2) Dicotyledonous weeds: ABUTH=Abutilon theophrasti; AMARE=Amaranthus retroflexus. Grassy monocotyledonous weeds: SETFA=Setaria faberi; ALOMY=Alopecurus myosuroides; ECHCG=Echinochloa crus-galli; ZEAMX=Zea mays (corn, maize, e.g. volunteer corn).

Assay [2] has as its system Zea mays (ZEAMX, corn, maize, e.g. volunteer corn). The conditions noted are these: Zea mays, 312 h, 13 days after application, read-out: percentage phytotoxicity ZEAMX. How it is done: as §1, §2
Assay [3] has as its system Alopecurus myosuroides (ALOMY). The conditions noted are these: 312 h, 13 days after application, read-out: percentage phytotoxicity ALOMY. How it is done:
as §1, §2

For assay [4], the system named is Abutilon theophrasti (ABUTH). The conditions noted are these: 312 h, 13 days after application, read-out: percentage phytotoxicity ABUTH. How it is done: as §1, §2
For assay [5], the system named is Amaranthus retroflexus (AMARE). The conditions noted are these: Amaranthus retroflexus, 312 h, 13 days after application, read-out: percentage phytotoxicity AMARE. The method, then:
as §1, §2

The next assay concerns Setaria faberi (SETFA). Conditions: 312 h, 13 days after application, read-out: percentage phytotoxicity SETFA. How it is done:
as §1, §2

`CC#Cc1cc(F)c(C2C(=O)C3CCC(C3)C2=O)c(OCC)c1` (stereo not drawn) [Compound A4]: the pest or weed control at 30 g/ha in assay [1] (post-emergence, post-emergence) was found to be 90%; in assay [1] (pre-emergence, pre-emergence), 90%; in assay [2] (post-emergence, post-emergence), 100%; in assay [2] (pre-emergence, pre-emergence), 80%; in assay [3] (post-emergence), 80%; in assay [3] (pre-emergence) it was 70%. Further, the pest or weed control at 30 g/ha was determined as 10% in assay [4] (post-emergence, post-emergence); 20% in assay [4] (pre-emergence, pre-emergence); 20% in assay [5] (post-emergence, post-emergence); 40% in assay [5] (pre-emergence, pre-emergence); 70% in the assay with Setaria faberi (SETFA) (post-emergence, post-emergence); 50% with Setaria faberi (SETFA) (pre-emergence, pre-emergence). The pest or weed control at 250 g/ha in assay [1] (post-emergence, post-emergence) was found to be 100%; in assay [1] (pre-emergence, pre-emergence), 100%; in assay [2] (post-emergence, post-emergence), 100%; in assay [2] (pre-emergence, pre-emergence), 100%; in assay [3] (post-emergence), 90%; in assay [3] (pre-emergence), 90%. Further, the pest or weed control at 250 g/ha was determined as 30% in assay [4] (post-emergence, post-emergence); 30% in assay [4] (pre-emergence, pre-emergence); 50% in assay [5] (post-emergence, post-emergence); 50% in assay [5] (pre-emergence, pre-emergence); 100% in the assay on Setaria faberi (SETFA) (post-emergence, post-emergence); 70% in the assay on Setaria faberi (SETFA) (pre-emergence, pre-emergence).
Turning to `CC#Cc1cc(F)c(C2C(=O)C3CCC(C)(C2=O)C3(C)C)c(OCC(F)(F)F)c1` (stereo not drawn) [Compound A9], the pest or weed control at 250 g/ha in assay [1] (post-emergence, post-emergence) is 10%; in assay [2] (post-emergence, post-emergence) it was 20%; in assay [3] (post-emergence), 10%; in assay [4] (post-emergence, post-emergence), 0%; in assay [5] (post-emergence, post-emergence) it was 0%; with Setaria faberi (SETFA) (post-emergence, post-emergence), 20%.
`CC#Cc1cc(F)c(C2C(=O)C3CCC(C)(C2=O)C3(C)C)c(OCCOC)c1` (stereo not drawn) [Compound A10]: the pest or weed control at 250 g/ha in assay [1] (post-emergence, post-emergence) is 0%; in assay [2] (post-emergence, post-emergence), 40%; in assay [3] (post-emergence) it was 0%; in assay [4] (post-emergence, post-emergence), 0%; in assay [5] (post-emergence, post-emergence), 0%; in the assay with Setaria faberi (SETFA) (post-emergence, post-emergence) it was 0%.
